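Where inhibition never reached the appropriate level, the endpoint shown equals the highest concentration tested. Otherwise, values were interpolated linearly from a five-concentration, 48-hour dose response in 96-well plates. GI50 is the concentration that inhibits growth by half.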 The source made the active and inactive calls. Rule as the data show it: active = GI50 up to about 1.1 µM and inactive = higher.
Columns and labels:
Assay in all cases: growth of human tumour cells (NCI), 48 h
[1] = test system: UACC-257
[2] = test system: MDA-N
[3] = test system: BT-549
[4] = test system: A498
[5] = test system: CCRF-CEM
[6] = test system: A549
[7] = test system: OVCAR-3
[8] = test system: K562
[9] = test system: NCI-H226
[10] = test system: RPMI-8226
[11] = test system: ACHN
[12] = test system: LOX IMVI
[13] = test system: T47D
[14] = test system: HCT-116
[15] = test system: MCF7
[16] = test system: COLO 205
[17] = test system: SNB-19
[18] = test system: SNB-75
[19] = test system: SN12C
[20] = test system: SF-295
[21] = test system: HL-60
[22] = test system: NCI-H460
[23] = test system: 786-0
[24] = test system: NCI/ADR-RES
[25] = test system: SK-MEL-28
[26] = test system: U-251
[27] = test system: OVCAR-5
[28] = test system: IGROV-1
[29] = test system: Hs-578T
[30] = test system: MOLT-4
[31] = test system: TK-10
[32] = test system: OVCAR-4
[33] = test system: HCT-15
[34] = test system: SK-OV-3
[35] = test system: PC-3
[36] = test system: MDA-MB-231
[37] = test system: HOP-92
[38] = test system: KM12
[39] = test system: HCC 2998
[40] = test system: SW-620
[41] = test system: OVCAR-8
[42] = test system: NCI-H23
[43] = test system: CAKI-1
[44] = test system: RXF 393
[45] = test system: HOP-62
[46] = test system: MDA-MB-435
[47] = test system: DU-145
[48] = test system: SF-539
[49] = test system: M14
[50] = test system: Malme-3M
[51] = test system: SF-268
[52] = test system: SK-MEL-2
[53] = test system: UACC-62
[54] = test system: HT-29
[55] = test system: NCI-H522
[56] = test system: EKVX

SMILES: CC1=NCCN=C(C)C1/N=N/c1ccc2[nH]c(C)nc2c1
- GI50 [1]: 11.3 µM (inactive)
- GI50 [2]: 10.2 µM (inactive)
- GI50 [3]: 9.08 µM (inactive)
- GI50 [4]: 0.912 µM (active)
- GI50 [5]: 4.97 µM (inactive)
- GI50 [6]: 6.19 µM (inactive)
- GI50 [7]: 19.5 µM (inactive)
- GI50 [8]: 4.83 µM (inactive)
- GI50 [9]: 20.3 µM (inactive)
- GI50 [10]: 3.11 µM (inactive)
- GI50 [11]: 15.6 µM (inactive)
- GI50 [12]: 20.7 µM (inactive)
- GI50 [13]: 12.7 µM (inactive)
- GI50 [14]: 13.2 µM (inactive)
- GI50 [15]: 5.75 µM (inactive)
- GI50 [16]: 15.2 µM (inactive)
- GI50 [17]: 10 µM (inactive)
- GI50 [18]: 13.2 µM (inactive)
- GI50 [19]: 11.7 µM (inactive)
- GI50 [20]: 13.2 µM (inactive)
- GI50 [21]: 3.54 µM (inactive)
- GI50 [22]: 18.2 µM (inactive)
- GI50 [23]: 11.7 µM (inactive)
- GI50 [24]: 12 µM (inactive)
- GI50 [25]: 10.6 µM (inactive)
- GI50 [26]: 17.5 µM (inactive)
- GI50 [27]: 17.6 µM (inactive)
- GI50 [28]: 25.9 µM (inactive)
- GI50 [29]: 23.3 µM (inactive)
- GI50 [30]: 6.38 µM (inactive)
- GI50 [31]: 19.7 µM (inactive)
- GI50 [32]: 12.4 µM (inactive)
- GI50 [33]: 8.77 µM
- GI50 [34]: 19.1 µM (inactive)
- GI50 [35]: 6.03 µM (inactive)
- GI50 [36]: 12.7 µM (inactive)
- GI50 [37]: 4.7 µM (inactive)
- GI50 [38]: 11.7 µM (inactive)
- GI50 [39]: 14 µM (inactive)
- GI50 [40]: 14.9 µM (inactive)
- GI50 [41]: 12.2 µM (inactive)
- GI50 [42]: 13.8 µM (inactive)
- GI50 [43]: 18.5 µM (inactive)
- GI50 [44]: 16.3 µM (inactive)
- GI50 [45]: 22.1 µM (inactive)
- GI50 [46]: 8.53 µM (inactive)
- GI50 [47]: 16.1 µM (inactive)
- GI50 [48]: 20.5 µM (inactive)
- GI50 [49]: 3.57 µM (inactive)
- GI50 [50]: 16 µM (inactive)
- GI50 [51]: 21.2 µM (inactive)
- GI50 [52]: 19.2 µM (inactive)
- GI50 [53]: 14.2 µM (inactive)
- GI50 [54]: 12.6 µM (inactive)
- GI50 [55]: 17.4 µM (inactive)
- GI50 [56]: 15.8 µM (inactive)

Reference: ChEMBL document CHEMBL1201862, “PubChem BioAssay data set” (2004)
